These results are taken from ChEMBL document CHEMBL3045491, “Antituberculosis activity of hydrazones derived from 4-fluorobenzoic acid hydrazide” (2009).

The term inhibition denotes the change of the read-out against control, counted positive when it falls.

The assay deals with Mycobacterium tuberculosis. The assay can be described thus: Antitubercular activity against Mycobacterium tuberculosis H37Rv ATCC 27294 at 6.25 ug/ml by microplate alamar blue assay. The assay is classed as functional.
Take `C/C(=N\NC(=O)c1ccc(F)cc1)c1ccco1`: the inhibition at 6.25 µg/mL turned out to be 53%.
The compound `C/C(=N\NC(=O)c1ccc(F)cc1)c1ccncc1` showed an inhibition at 6.25 µg/mL of 53%.
Under `C/C(=N\NC(=O)c1ccc(F)cc1)c1cccs1` stands 50%; under `O=C(N/N=C/c1c(Cl)cccc1Cl)c1ccc(F)cc1`, 85%.
In the case of `O=C(N/N=C/c1cccc(Oc2ccccc2)c1)c1ccc(F)cc1`, the inhibition at 6.25 µg/mL amounted to 84%.
`O=C(N/N=C/c1cc(Cl)cc(Cl)c1O)c1ccc(F)cc1` returned an inhibition at 6.25 µg/mL of 69%.
The result for `O=C(N/N=C/c1cc(Cl)cc(Cl)c1)c1ccc(F)cc1` reads 65%.
Under `O=C(N/N=C/c1ccc(Cl)cc1Cl)c1ccc(F)cc1` stands 62%; under `CN(C)CCCOc1ccc(/C=N/NC(=O)c2ccc(F)cc2)cc1`, 58%.
Under `O=C(N/N=C/c1cccc(F)c1)c1ccc(F)cc1` stands 52%; under `C/C(=N\NC(=O)c1ccc(F)cc1)c1ccc[nH]1`, 66%.
Compound `C/C(=N\NC(=O)c1ccc(F)cc1)c1ccc(Cl)s1` displayed an inhibition at 6.25 µg/mL of 64%.
Under `C/C(=N\NC(=O)c1ccc(F)cc1)c1ccccc1` stands 59%.
`C/C(=N\NC(=O)c1ccc(F)cc1)c1ccc(Br)s1` showed an inhibition at 6.25 µg/mL of 59%.
`C=C/C(C)=N/NC(=O)c1ccc(F)cc1` came in with an inhibition at 6.25 µg/mL of 56%.
The result for `CC/C(=N\NC(=O)c1ccc(F)cc1)c1ccccc1` reads 53%.
